The values below come from publication PMC10116596 (Biochemistry, 2023).

For this assay, the target named is LcrH1–168 (Yersinia pestis, UniProt P21207). Type of assay: binding, Y. pestis. The settings on record: pH 7.8.
LcrH1–168, sequence (P21207 whole entry, looked up): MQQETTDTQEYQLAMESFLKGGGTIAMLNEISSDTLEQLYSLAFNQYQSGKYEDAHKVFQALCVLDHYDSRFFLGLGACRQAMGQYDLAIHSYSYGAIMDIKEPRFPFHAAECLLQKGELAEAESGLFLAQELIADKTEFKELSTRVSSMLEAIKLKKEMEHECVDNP

For the substance Ac-QGVQLPAPLA-NH2 [YopB48–57], the ΔH result is listed as “–44 ± 15 kJ/mol” and the “–TΔS” value worked out at 23 ± 15 kJ/mol.

Regarding Ac-QVPELIKPSQ-NH2 [YopD56–65], the ΔH entry was “–51 ± 2 kJ/mol” and the “–TΔS” value is 28 ± 2 kJ/mol.
